Source: paper PMC2653091 (Journal of medicinal chemistry, 2009)
Read-outs that look alike come from different tables or passages of the source. Blank lines part the entries; values can stand above or below the compound they belong to. Where no end group is shown, it is not given here.

How the values were obtained:
NPSR = conditions: cited from earlier work
mouse vertical activity = conditions: at doses able to counteract the stimulatory effect of exogenously applied NPS; cited from earlier work
mouse NPSR = biological target: T1, mouse NPSR (Mus musculus, UniProt Q8BZP8); experiment: Calcium mobilization in HEK293mNPSR cells, agonist mode; type: cell-based
T1 sequence (Q8BZP8 1-371): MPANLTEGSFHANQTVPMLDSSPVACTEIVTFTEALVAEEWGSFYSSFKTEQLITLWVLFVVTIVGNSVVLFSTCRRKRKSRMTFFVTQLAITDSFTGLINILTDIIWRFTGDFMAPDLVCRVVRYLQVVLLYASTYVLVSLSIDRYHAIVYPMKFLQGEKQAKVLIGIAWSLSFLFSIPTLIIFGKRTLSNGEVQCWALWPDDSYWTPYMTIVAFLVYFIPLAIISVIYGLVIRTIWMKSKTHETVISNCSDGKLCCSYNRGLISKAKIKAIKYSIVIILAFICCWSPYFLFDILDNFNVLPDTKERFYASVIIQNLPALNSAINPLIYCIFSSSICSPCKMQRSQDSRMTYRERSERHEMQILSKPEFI

Compound: O=C(NCc1ccc(F)cc1)N1CCN2C(=O)OC(c3ccccc3)(c3ccccc3)C2C1 (stereo not drawn) [SHA 68, 3-Oxo-1,1-diphenyl-tetrahydro-oxazolo[3,4-a]pyrazine-7-carboxylic acid 4-fluoro-benzylamide]
Pharmacological profile at NPSR (NPSR; ref 18): pure antagonist
Effect per se on mouse vertical activity (mouse vertical activity): selective reduction of mouse vertical activity

Agonist effect at 10 μM (crc incomplete) (mouse NPSR; 10 μM, % over the baseline, HEK293mNPSR): 30%
Compound: [Trp^5]NPS (SFRNWVGTGMKKTSFQRAKS; Neuropeptide S; UniProt P0C0P6 70-89, looked up, variant G5W) [Compound 2]

Compound: [Ala^5]NPS (SFRNAVGTGMKKTSFQRAKS; Neuropeptide S; UniProt P0C0P6 70-89, looked up, variant G5A)
Pharmacological profile at NPSR (NPSR; ref 6, 15): high potency NPSR full agonist
Pharmacological profile at NPSR (NPSR; ref 15): full agonist

Compound: [Ala^3]NPS
Pharmacological profile at NPSR (NPSR; ref 17): partial agonist

Emax (mouse NPSR; read-out: Agonist Emax ± sem, SEM): 295 ± 22%
Compound: SFRNGVGTGMKKTSFQRAKS [NPS, Neuropeptide S]

Compound: [D-Ala^5]NPS
Pharmacological profile at NPSR (NPSR; ref 15): partial agonist

Compound: [Aib^5]NPS
Pharmacological profile at NPSR (NPSR; ref 15): partial agonists
